Calls of active or inactive are those of the source. The calls are words filed in the database; no cut-off is given here.
Tests used:
[1] = system: SUM-159-PT; test: Downregulation of TAZ protein expression in human SUM159 cells at 0.25 to 1.5 uM measured after 12 to 24 hrs by immunoblotting analysis; type: functional, cell-based
[2] = system: MDA-MB-231; test: Downregulation of TAZ protein expression in human MDA-MB-231 cells at 0.25 to 1.5 uM measured after 24 to 48 hrs by immunoblotting analysis; type: functional, cell-based
[3] = system: PC-3; test: Effect on MOB expression in human PC3 cells at 0.25 to 1.5 uM measured after 24 hrs by Western blot analysis; type: functional, cell-based
[4] = Acute toxicity in athymic Nude-Foxn1nu BALB/c mouse xenografted with human MDA-MB-231 cells assessed as effect on blood urea nitrogen level at 200 mg/kg, po administered once daily via gavage for 14 days; type: organism-based; settings: in vivo, 336 h
[5] = system: MDA-MB-231; test: Effect on MOB expression in human MDA-MB-231 cells at 0.25 to 1.5 uM measured after 24 hrs by Western blot analysis; type: functional, cell-based
[6] = system: Mus musculus; test: Downregulation of C-myc protein expression in tumor of athymic Nude-Foxn1nu BALB/c mouse xenografted with human MDA-MB-231 cells at 200 mg/kg, po administered once daily via gavage for 40 days by immunoblotting analysis; type: functional, organism-based
[7] = biological target: T1, Serine/threonine-protein kinase LATS1 (Homo sapiens) (UniProt O95835); test: Activation of LATS1 in human PC3 cells assessed as induction of YAP degradation by measuring suppression of YAP protein expression at 0.25 to 1.5 uM measured after 12 to 24 hrs by immunoblotting analysis; type: cell-based
T1 sequence (whole entry): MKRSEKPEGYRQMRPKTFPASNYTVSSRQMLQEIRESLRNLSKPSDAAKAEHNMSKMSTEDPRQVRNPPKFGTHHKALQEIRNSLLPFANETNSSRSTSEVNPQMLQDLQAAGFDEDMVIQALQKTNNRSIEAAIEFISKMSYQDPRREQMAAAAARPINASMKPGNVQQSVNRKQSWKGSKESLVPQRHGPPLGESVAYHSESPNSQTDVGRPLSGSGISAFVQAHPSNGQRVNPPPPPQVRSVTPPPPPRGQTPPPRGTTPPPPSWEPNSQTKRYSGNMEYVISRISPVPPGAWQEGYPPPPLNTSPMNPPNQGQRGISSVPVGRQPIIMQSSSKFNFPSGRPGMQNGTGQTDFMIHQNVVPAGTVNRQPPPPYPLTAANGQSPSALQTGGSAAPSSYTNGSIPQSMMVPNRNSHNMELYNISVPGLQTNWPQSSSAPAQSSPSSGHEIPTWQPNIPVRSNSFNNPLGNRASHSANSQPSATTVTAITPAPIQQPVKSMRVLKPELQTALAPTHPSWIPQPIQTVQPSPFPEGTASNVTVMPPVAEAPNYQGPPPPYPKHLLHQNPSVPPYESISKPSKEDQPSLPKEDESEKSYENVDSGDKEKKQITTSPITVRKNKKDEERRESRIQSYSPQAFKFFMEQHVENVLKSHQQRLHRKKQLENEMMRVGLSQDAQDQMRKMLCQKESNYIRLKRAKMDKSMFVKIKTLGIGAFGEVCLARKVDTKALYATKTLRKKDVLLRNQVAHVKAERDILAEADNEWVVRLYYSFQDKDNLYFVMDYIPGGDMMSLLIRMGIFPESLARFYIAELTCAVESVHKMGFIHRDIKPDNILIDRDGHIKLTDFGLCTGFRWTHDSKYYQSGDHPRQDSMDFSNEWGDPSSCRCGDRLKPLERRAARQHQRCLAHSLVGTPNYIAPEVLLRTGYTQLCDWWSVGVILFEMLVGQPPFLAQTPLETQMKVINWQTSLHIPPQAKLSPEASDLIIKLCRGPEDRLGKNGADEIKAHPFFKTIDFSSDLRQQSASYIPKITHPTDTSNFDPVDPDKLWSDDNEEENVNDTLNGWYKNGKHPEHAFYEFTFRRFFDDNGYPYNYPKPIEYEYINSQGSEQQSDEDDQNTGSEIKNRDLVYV

[8] = system: Mus musculus; test: Downregulation of cyclin D1 protein expression in tumor of athymic Nude-Foxn1nu BALB/c mouse xenografted with human MDA-MB-231 cells at 200 mg/kg, po administered once daily via gavage for 40 days by immunoblotting analysis; type: functional, organism-based

CC(=O)Nc1ccc(NC(=O)Nc2cccc(-c3nc(-c4ccc(NC(=O)c5cccnc5)cc4Cl)no3)c2)cc1C(F)(F)F
inhibition [1]: Active | inhibition [2]: Active | Activity [3]: inactive | Activity [4]: Non-Toxic | Activity [5]: inactive | inhibition [6]: Active | Activity [7]: Active | inhibition [8]: Active

Source: ChEMBL document CHEMBL4342507, “Targeting YAP Degradation by a Novel 1,2,4-Oxadiazole Derivative via Restoration of the Function of the Hippo Pathway” (ACS Med Chem Lett, 2020)
